Experimental data: patent EP4613273A1, “TREATMENT OF BONE LOSS” (priority 2024, dated 2025)
Structures can show the parent of a compound that is named as a salt.

Experiment: Tolerance, hematology, biochemistry and calcium during 90-day treatment in dogs with periodontal disease
Type: in vivo
Design: Platelet: unit not given here
Details: for Alanine transferase / Albumin / Albumin/Globulin ratio / Alkalin phosphatase / BUN/Creatinine ratio / Basophil / Creatinine / Eosinophil / Globulin / Glucose / HCT / HGB / Lymphocyte / MCH / MCHC / MCV / Monocyte / Neutrophil / Platelet / RBC / Reticulocyte / Total calcium / Total protein / Urea: mean
Experimental: The present study was performed on 10 Beagle dogs suffering from alveolar bone loss induced by spontaneously developed periodontal disease. All dogs were treated with MIV-701 besylate salt for minimum 30 day and maximum 90 days, depending on the tolerance at intermediate visits. The product is administrated to the dog by its owner at home, once a day with a meal.
There were two treatment groups: • Group A (5 dogs) with a dose of 25 mg/kg. • Group B (5 dogs) with a dose of 50 mg/kg.
Treatment was administrated for 90 days. Every 30 days, based on the results of clinical exam, blood parameters and potential occurrence of adverse events suspected to be drug-related, the treatment prolongation for another 30 days, or discontinuation of treatment was decided by the Investigator.
Whole blood sample for hematology analysis was collected at visit V1 (between Day -7 and Day 0), visit V3 (Day 30+3 days), Visit V4 (Day 60t 3 days) and Visit V5 (Day 90t 3 days).
The result from visit V1 (between Day -7 and Day 0) was used as a baseline value for the safety evaluation criteria.
Each time 1 ml of the peripheral whole blood was collected on a tube with anti-coagulant (EDTA) and gently inverted several times. A complete blood count: WBC with details of lymphocytes, monocytes and polynuclear cells (neutrophils, eosinophils and basophils); Red blood cells (RBC); Hematocrit (HCT); Hemoglobin (HGB); Reticulocytes (RETIC); Mean corpuscular volume (MCV); Mean Corpuscular Hemoglobin (MCH); Mean Corpuscular Hemoglobin Concentration (MCHC); platelets count (PLT) was performed.
Whole blood sample for biochemistry analysis was collected at visit V1 (between Day -7 and Day 0), visit V3 (Day 30+3 days), Visit V4 (Day 60t 3 days) and Visit V5 (Day 90t 3 days).
Each time 1.3 ml of the peripheral whole blood was collected on lithium heparin tube and gently inverted several times. Next, sample was centrifuged at 2500 G for 5 minutes at room temperature and heparin plasma will be collected. The following biochemical parameters: Albumin, Alanine transaminase (ALT), Alkaline phosphatase (ALP), creatinine, globulins, glucose, Total proteins, Urea, Albumin/globulin ratio and urea/creatinine ratio were analyzed.

[1] = dogs with periodontal disease, 90-day treatment
[2] = Day 30, 25 or 50 mg/kg/day oral
[3] = Day 60, 25 or 50 mg/kg/day oral
[4] = Day 90, all dogs 50 mg/kg/day for last 30 days

## CC(C)C[C@H](NC(=O)c1ccc(-c2csc(N3CCN(C)CC3)n2)cc1)C(=O)N1C[C@H](F)[C@H]2OCC(O)(O)[C@H]21 [MIV-701 besylate salt, N-[(S)-1-((3aS,6S,6aS)-6-Fluoro-S-oxo-hexahydro-furo[3,2-b]pyrrole-4-carbony)-3-methyl-butyl]-4-[2-(4-methyl-piperazin-1-yl)-thiazol-4-yl]-benzamide benzenesulphonate]
[1]
  death and Serious Adverse Event (SAE): No death and no Serious Adverse Event (SAE)
  evolution of blood cell count and clinical biochemistry parameters: No safety concern
Dogs with periodontal disease, once-a-day 25 and 50 mg/kg/day, 90-day treatment period
  tolerance: well tolerated
[2]
  Alanine transferase: 37,9 U/L
  Albumin: 26,3 g/L
  Albumin/Globulin ratio: 0,61
  Alkalin phosphatase: 31,5 U/L
  BUN/Creatinine ratio: 17,8
  Basophil: 0,03 10^9/L
  Creatinine: 57,8 µmol/L
  Eosinophil: 1,3 10^9/L
  Globulin: 43,6 g/L
  Glucose: 5,3 mmol/L
  HCT: 41,8%
  HGB: 14,2 g/DL
  Lymphocyte: 1,7 10^9/L
  MCH: 21,5 pg
  MCHC: 33,9 g/DL
  MCV: 63,5 fL
  Monocyte: 0,8 10^9/L
  Neutrophil: 7,7 10^9/L
  Platelet: 381,3
  RBC: 6,6 10^12/L
  Reticulocyte: 32,0 K/µL
  Total calcium: 2,4 mmol/L
  Total protein: 7,0 g/dL
  Urea: 4,0 mmol/L
[3]
  Alanine transferase: 41,7 U/L
  Albumin: 26,9 g/L
  Albumin/Globulin ratio: 0,65
  Alkalin phosphatase: 31,6 U/L
  BUN/Creatinine ratio: 21,7
  Basophil: 0,03 10^9/L
  Creatinine: 62,7 µmol/L
  Eosinophil: 1,2 10^9/L
  Globulin: 40,6 g/L
  Glucose: 5,7 mmol/L
  HCT: 40,0%
  HGB: 13,6 g/DL
  Lymphocyte: 1,7 10^9/L
  MCH: 21,8 pg
  MCHC: 33,8 g/DL
  MCV: 64,6 fL
  Monocyte: 0,7 10^9/L
  Neutrophil: 7,0 10^9/L
  Platelet: 384,8
  RBC: 6,2 10^12/L
  Reticulocyte: 22,9 K/µL
  Total calcium: 2,3 mmol/L
  Total protein: 6,8 g/dL
  Urea: 5,4 mmol/L
[4]
  Alanine transferase: 36,8 U/L
  Albumin: 28,3 g/L
  Albumin/Globulin ratio: 0,65
  Alkalin phosphatase: 45,4 U/L
  BUN/Creatinine ratio: 22,8
  Basophil: 0,02 10^9/L
  Creatinine: 60,2 µmol/L
  Eosinophil: 1,2 10^9/L
  Globulin: 43,0 g/L
  Glucose: 5,7 mmol/L
  HCT: 40,1%
  HGB: 13,6 g/DL
  Lymphocyte: 1,7 10^9/L
  MCH: 22,2 pg
  MCHC: 33,8 g/DL
  MCV: 65,7 fL
  Monocyte: 0,9 10^9/L
  Neutrophil: 8,3 10^9/L
  Platelet: 423,0
  RBC: 6,2 10^12/L
  Reticulocyte: 29.5 K/µL
  Total calcium: 2,4 mmol/L
  Total protein: 7,1 g/dL
  Urea: 5,4 mmol/L
Of 10 dogs, spontaneously resolved under treatment
  dogs with one episode of diarrhea of mild intensity for 2 days: 2 dogs
